Data on 2 compounds can be found in publication PMC12592173, “Targeted degradation of EGFR 19Del by PROTACs suppresses tumor growth in non-small-cell lung cancer” (Frontiers in Pharmacology, 2025).

SMILES strings stand for the structures. Where “and” joins values, the source holds several entries; their conditions need not be identical. Equal entries are not always repeated. Entries after “also recorded” stand apart in the source; their conditions may differ. Where two headings read alike, the source gives them in different places.

The test system of data set [1] is HCC827 cells. The note with it: ref Zhao et al., 2022; cited from earlier work.
For data set [2], the system named is EGFR^Del19. The note with it: HCC827 cells; ref Zhao et al., 2022; cited from earlier work.
Data set [3] addresses EGFR^WT protein (Homo sapiens, UniProt P00533). Put plainly: Immunoblots of EGFR in H1299, H460 and HeLa cells. The note with it: H1299, H460 and HeLa cell lines, up to 1 μM, 24 h. The format is cell-based. The protocol:
(§1) Cells at 70%–90% confluence were lysed in RIPA buffer with complete protease inhibitor cocktail (Roche Applied Science, Penzberg, Germany). Lysates were quantified, separated on SDS-PAGE gels, and transferred onto PVDF membranes, followed by the blockade with 5% milk in TBS+ 0.1% Tween-20 buffer for 1 h at room temperature. The following primary antibodies were used: anti-EGFR (1:50000, ABclonal Technology, Wuhan, China), anti-pEGFR (Tyr1068, […], Cell Signaling Technology, MA, United States), anti-AKT (1:10000, ABclonal Technology, Wuhan, China), anti-pAKT (1:10000, ABclonal Technology, Wuhan, China), and anti-β-actin (1:10000, ABclonal Technology, Wuhan, China). Protein bands were detected using Tanon High-signal ECL Western Blotting Substrate (Tanon Science and Technology Co., Ltd., Shanghai, China). The band density of the protein of interest was quantified using ImageJ.
A general note: Immunoblotting shows a protein as a band on a membrane.

Data set [4] relates to HeLa cells. Put plainly: Cell viability (CCK-8) in HeLa cells. The format is cell-based. The note with it: up to 1 μM, 96 h. How it is done: (§2) Cells (5 × 10^3 for 48 h or 1 × 10^3 for 96 h) were seeded in 96-well plates, allowed to attach overnight, and then incubated with various concentrations of compounds for 48 h or 96 h. The viability of cells was determined using Cell Counting Kit-8 (CCK-8; Dojindo), and IC50 was calculated using GraphPad Prism (version 6.0). For colony formation assays, cells (1 × 10^3 cells/well) seeded in 24-well plates were treated with different concentrations of compounds and replaced with fresh media with compounds every 4 days. After 7 days, the cells were washed with PBS, fixed with methanol, and stained with 0.1% crystal violet solution.

Data set [5] is described as follows: Mouse weights in HCC827 xenograft study. The note with it: 30 mg/kg intraperitoneal, repeated and one-time dosing. It is filed as in vivo. How it is done:
(§3) Female BALB/c nude mice (5–6 weeks old) were purchased from Changzhou Cavens Laboratory Animal Co., Ltd. (China) and housed under pathogen-free conditions. HCC827 cells (5 × 10^6) suspended in 150 μL PBS were inoculated subcutaneously on the left flank of the mouse. When tumor volume reached an average of 70–80 mm^3, mice were randomly assigned to two groups (three mice in each group). Compound 14 (30 mg/kg, dissolved in 40% PEG 400 and 5% Tween-80) or vehicle (40% PEG 400 and 5% Tween-80) was administered to mice via intraperitoneal injection every 2 days for 21 days. The tumor volume was calculated as follows: tumor volume (mm^3) = (length × width^2)/2. All animal experiments were approved by the Ethics Committee for laboratory animals, The Nanjing Han & Zaenker Cancer Institute (File number: OGKQSPF/SQ-112).

Data set [6] concerns H1299 cells. The data set is described as follows: Cell viability (CCK-8) in H1299 cells. It is filed as cell-based. The note with it: up to 1 μM, 96 h. How it is done:
as §2

Data set [7] has as its system pEGFR and pAKT. The data set is described as follows: Western blot of downstream signaling in HCC827 cells. The format is cell-based, human. How it is done: as §1
Data set [8] has as its system H1975 cells. Put plainly: Cell viability (CCK-8) in H1975 cells. The format is cell-based. The note with it: up to 1 μM, 96 h. How it is done: as §2
The subject of data set [9] is HCC827 cells. The data set is described as follows: Colony formation assay in HCC827 cells. It is filed as cell-based, human. The note with it: HCC827, 7 days. The protocol: as §2
Data set [10] has as its target T1, EGFR^L858R/T790M protein (Homo sapiens, UniProt P00533, L858R/T790M).
T1 construct: nor the EGFR^L858R/T790M protein in the H1975 cell line, up to 1 μM; host or cells: H1975
The data set is described as follows: Immunoblots of EGFR in H1975 cells. It is filed as cell-based. The note with it: H1975 cell line, up to 1 μM, 24 h. How it is done:
as §1

Data set [11] addresses T2, EGFR^L858R (Homo sapiens, UniProt P00533, L858R).
T2 construct: expressed in transfected cells; host or cells: Ba/F3 (lentiviral pLVX-EGFR^L858R, puromycin selected)
The data set is described as follows: Western blot of EGFR degradation in Ba/F3 cells stably expressing EGFR^L858R. It is filed as cell-based. The note with it: 24 h. How it is done: HCC827 and H1975 cell lines were purchased from ATCC (United States) and cultured according to the manuals. Cells were grown in monolayers in appropriate media supplemented with 10% fetal bovine serum and 1% antibiotic/antimycotic solution. Ba/F3 cells stably expressing EGFR^L858R were obtained by infection with lentivirus produced by co-transfection of pLVX-EGFR^L858R, psPAX2, and pMD2.G into 293T cells, followed by selection with puromycin.
as §1

Data set [12] concerns HCC827 human tumor xenograft. The data set is described as follows: HCC827 xenograft tumor growth in BALB/c nude mice. It is filed as in vivo, mouse. How it is done: as §3, with “Compound 14 (30 mg/kg, dissolved in 40% PEG 400 and 5% Tween-80) or vehicle (40% PEG 400 and 5% Tween-80) was administered to mice via intraperitoneal injection every 2 days for 21 days.” left out
In data set [13] the target is T3, EGFR^Del19 (Homo sapiens, UniProt P00533+Q96SW2, DEL746-750). Put plainly: Western blot of dissected HCC827 xenograft tumors. The format is in vivo, mouse. Further details: from tissue; host or cells: HCC827 xenograft tumours in female BALB/c nude mice. The note with it: 30 mg/kg intraperitoneal. How it is done:
as §1
Female BALB/c nude mice (5–6 weeks old) were purchased from Changzhou Cavens Laboratory Animal Co., Ltd. (China) and housed under pathogen-free conditions. HCC827 cells (5 × 10^6) suspended in 150 μL PBS were inoculated subcutaneously on the left flank of the mouse. When tumor volume reached an average of 70–80 mm^3, mice were randomly assigned to two groups (three mice in each group). […] The tumor volume was calculated as follows: tumor volume (mm^3) = (length × width^2)/2. […]

The target of data set [14] is T3, EGFR^Del19. The data set is described as follows: Western blot of EGFR degradation in HCC827 cells. The format is cell-based. The arrangement: host or cells: HCC827. The note with it: for EGFR protein remaining under cycloheximide: HCC827, cycloheximide 100 μg/mL + 10 nM compound. The protocol: HCC827 and H1975 cell lines were purchased from ATCC (United States) and cultured according to the manuals. Cells were grown in monolayers in appropriate media supplemented with 10% fetal bovine serum and 1% antibiotic/antimycotic solution.
as §1

The test system of data set [15] is HCC827 cells. Put plainly: Cell viability (CCK-8) in HCC827 cells. The note with it: for IC50: Homo sapiens, CCK-8. The format is cell-based, human. The protocol:
The viability of cells was determined using Cell Counting Kit-8 (CCK-8; Dojindo), and IC50 was calculated using GraphPad Prism (version 6.0). For colony formation assays, cells (1 × 10^3 cells/well) seeded in 24-well plates were treated with different concentrations of compounds and replaced with fresh media with compounds every 4 days. After 7 days, the cells were washed with PBS, fixed with methanol, and stained with 0.1% crystal violet solution.

Data set [16] relates to HCC827 cells. The data set is described as follows: Apoptosis assay (Annexin V-FITC/PI, flow cytometry). The format is cell-based, human. The note with it: HCC827, 10 nM, 48 h. From the text:
The percentage of apoptotic cells in total cells was designated as the apoptotic index.
For orientation: A flow cytometer gives signals particle by particle.

On to `C=CC(=O)N1CCC[C@H](n2c(Nc3ccccc3)nc3cnc(Nc4ccc(N5CCN(CCCCCCCC(=O)N[C@H](C(=O)N6C[C@H](O)C[C@H]6C(=O)N[C@@H](C)c6ccc(-c7scnc7C)cc6)C(C)(C)C)CC5)cc4)nc32)C1` [CP17], for which the IC50 (commonly the concentration that gives 50% inhibition) in data set [1] is 1.6 nM. The DC50 in [2] was 0.49 nM.
With `COc1cc2c(Nc3ccc(F)c(Cl)c3)ncnc2cc1OCCCN1CCN(CCN2CCN(c3ccc4c(c3)C(=O)N(C3CCC(=O)NC3=O)C4=O)CC2)CC1` (stereo not drawn) [Compound 14], in [3], the “Degradation of EGFR^WT protein” value is “no effect; also recorded: neither compound degraded; also recorded: No significant degradation”. Moreover, the Effect on viability entry in [4], in data set [6] and in data set [8] was “not affecting the viability; also recorded: did not affect the viability” throughout. The “Signs of wasting (mouse weights)” value in data set [5] is recorded as “None of the mice showed signs of wasting”. In addition, the “Levels of pEGFR and pAKT” value in data set [7] was “markedly reduced; also recorded: more marked decreases”. Moreover, the Colony formation entry in data set [9] is “fewer and smaller colonies”. Further, in data set [10], the “Degradation of EGFR^L858R/T790M protein” value is “neither compound degraded”. Besides, the DC50 in data set [11] (Ba/F3 cells stably expressing EGFR^L858R) was 20.6 nM; in [14] (HCC827 cells, 24 h treatment), 0.26 nM and 0.261 nM. In addition, the “Degradation of EGFR^L858R compared with MS154” value in [11] (Ba/F3 cells) was “remarkable improvements”. The compound further yielded a Mean tumor volume in [12] (30 mg/kg intraperitoneal every 2 days for 21 days) of 56.58 ± 10.91 mm^3. Further, the “Mean tumor volume inhibition” value in data set [12] (one-time intraperitoneal injection 30 mg/kg, 18 days after treatment, versus vehicle) was found to be 79%. The “EGFR^Del19 protein in tumors in vivo” value in data set [13] is reported as “effectively degraded”. The “EGFR degradation (%)” value in data set [14] (10 nM, HCC827, 24 h, average of two independent experiments, NA = not active) is 66.3% ± 3.5% and 66.3 ± 3.5%. For the same compound, the entries for the “EGFR protein remaining under cycloheximide” value in [14] (4 h) and in [14] (8 h) were 34.5% and 12.5%, respectively. Further, the “Earliest time at which EGFR^Del19 degradation observed” value in [14] (HCC827 cells, 10 nM) was found to be 2 h. Besides, the maximal degradation (Dmax) (as a rule, the greatest extent of degradation seen) at 0.01 µM in data set [14] (HCC827 cells, 10 nM, after 24 h of incubation, read-out: Maximum degradation (Dmax) in time course) was 85%. For the same compound, the “Duration of sustained EGFR^Del19 degradation” value in data set [14] (HCC827 cells, 10 nM, continuous incubation) is reported as 96 h. Besides, the “Duration of EGFR^Del19 reduction after compound removal” value in data set [14] (HCC827 cells, 8 h incubation with 10 nM, then washout) was “over 72 h”. Also, the “Degradation of EGFR^Del19 compared with MS154” value in data set [14] (HCC827 cells, 24 h) was “remarkable improvements”. Besides, the maximal degradation (Dmax) in data set [14] (HCC827 cells, 24 h, dose-response) came out at 91.2%. Also, the “Proliferation after compound removal” value in data set [15] (HCC827, 10 nM for 8 h, washed, fresh media 24-96 h) is on record as “almost completely stopped proliferating; also recorded: completely ceased proliferation”. Further, the 50% inhibitory concentration (IC50) in data set [15] (HCC827, 48 h, HCC827, 48 h incubation) was approximately 8.29 nM; in data set [15] (HCC827, 96 h, HCC827, 96 h incubation) it was 4.91 nM. Further, in data set [15] (different concentrations), the “Proliferation of HCC827 cells versus control vehicle” value is listed as “markedly attenuated the proliferation”. Further, the “Increase in the number of apoptotic cells” value in [16] was “at least a two-fold increase”.
